US20110269812A1, “NOVEL BENZYLIDENE-INDOLINONE AND THEIR MEDICAL AND DIAGNOSTIC USES” (Agency for Science, Technology and Research, priority 2008, published 2011)
Read-outs that look alike come from different tables or passages of the source.

Assays:
[1] = system: Hepa1c1c7 cells; test: MTT growth inhibition / cytotoxicity on Hepa1c1c7 cells; assay type: cell-based, murine; conditions: Mus musculus, Hepa-1c1c7, 48 h, highest concentration tested 25 μM
Procedure: (§1) The antiproliferative activity of the compounds according to the invention was determined by the MTT assay on the following cell lines: MCF7 (human breast cancer cell line), HCT116 (human colon cancer cell line), and CCL186 (normal human diploid embryonic lung fibroblast). […] MCF7 and CCL186 cells were cultured in Eagle's Minimum Essential Medium (EMEM) with 1 mM sodium pyruvate, 1.5 g/L sodium bicarbonate, 2 mM L-glutamine supplemented with 10% FBS and 0.01% antibiotics. HCT116 cells were cultured in McCoy's 5A Medium with 2.2 g/L sodium bicarbonate supplemented with […] and 0.01% antibiotics. Cells were plated at the following densities: 10000 cells/well (MCF7), 4000 cells/well (HCT116), 5000 cells/well (CCL186). They were grown for 24 h in a 96-well plate, with 100 μl of corresponding medium in each well. The test compounds were prepared in DMSO and diluted to a series of concentrations with medium. Not more than 1% DMSO (final concentration) was present in each well. The test compounds were incubated with the cells for 72 h, after which 100 μl MTT solution (0.5 mg/ml in 1× PBS) was added for 3 h and the cells lysed to release the formazan product. The latter was dissolved in DMSO (150 μl) and absorbance determined within 30 min at 590 nm on a microtitre plate reader. Cell survival was given by the expression:
(§2) Cell survival (%)=[(Acells+test compound−Ablank)/(Auntreated cells−Ablank)]×100
(§3) where A is the absorbance of formazan measured at 590 nm in the test (Acells+test compound), control (Auntreated cells) or blank (Ablank) wells. Each concentration of test compound was evaluated on 3 separate occasions. […] The MTT assay was also carried out on Hepa1c1c7 cells for the purpose of determining cytotoxicity of test compounds. The same procedure was adopted except that the incubation period of compound with cells was 48 h, instead of 72 h.

[2] = system: NQO1; test: Induction of NQO1 (QR) activity in Hepa1c1c7 cells
[3] = system: CYP1A1; test: 7-ethoxyresorufin O-deethylase (EROD) assay, CYP1A1 induction in Hepa1c1c7 cells; assay type: cell-based, murine; conditions: 48 h
Procedure: Hepa1c1c7 cells were plated at a density of 10000 cells per well in a 96-well plate and cultured for 24 h. A stock solution of test compound was prepared in DMSO and serially diluted with medium to give the desired concentration in the well. The final concentration of DMSO was 0.5% v/v. The cells were incubated with test compound for 48 h, after which the medium was removed, the well washed with 200 μl of 1×phosphate-buffered saline solution (PBS) and then incubated with 5 μM 7-ethoxyresorufin and 2 mM salicylamide in 200 μl of medium at 37° C., 40 min. Readings were taken at λexcitation of 530 nm and λemission of 590 nm on a fluorometer. Fluorescence (if any) of the test compound was determined at the same wavelengths to take into account its contribution to the observed readings. Readings of empty wells (no cells, “blank”) and wells with Hepa1c1c7 cells in medium containing 0.5% DMSO but without test compound (“control”) were also determined. TCDD, a strong inducer of CYP1A1 activity, as well as BNF and sulforaphane were used as controls.
CYP1A1 induction activity was given by the expression:
Degree of induction=FCells+test compound−FBlank/FControl−FBlank
The EROD assay was used for this purpose (Burke, M. D.; Mayer, R. T., Drug Metab Dispos 1974, 2, 583). EROD activity describes the rate at which CYP1A1 caused the O-deethylation of 7-ethoxyresorufin to resorufm. […] This ratio was determined for compounds at concentrations that were approximately 4 times their CD values. A fixed concentration was not used here because it would be difficult to select this concentration in view of the large variation in NQO1 induction activities. The quotient of NQO1 and CYP1A1 induction ratios (ratio determined at the same concentration) was also obtained for each compound. Values >1 would imply greater induction of NQO1 relative to CYP1A1.

[4] = system: THLE2; test: Cell viability assay (Cell Titer-Glo), THLE2 normal hepatocyte cell line; assay type: cell-based; conditions: Homo sapiens, THLE-2, 72 h, read-out: IC50 THLE2
Procedure: (§4) Cells were plated at 5000-7000 cells/per well and incubated for 24 h before treatment. […] Cell Titer-Glo (Promega, Madison, Wis.) assay was performed according to manufacturer's instruction with luminescence detected on SpectraMax M5 (Molecular Devices, Sunnyvale, Calif.). Data was expressed as percentage of viability vs. vehicle-treated controls.
(§5) The anti-cancer potential of these compounds against HCC were tested using a phenotypic assay where compounds were screened over 100-fold concentration range (0.1 to 10 μM) using two representative liver cancer cell lines, HepG2 and HuH7. Additionally, THLE2 was employed as normal hepatocyte cell line to differentiate anti-cancer potential from non-specific cytotoxicities.
(§6) Cell viability assay shown in FIG. 2 was analyzed by Prism5 for the determination of respective IC50 values.

[5] = system: CCL186 (normal human diploid embryonic lung fibroblast); test: Antiproliferative MTT assay, CCL186; assay type: cell-based; conditions: for IC50: Homo sapiens, CCL186, MTT, 72 h incubation, mean ± SD, n = 3, read-out: IC50 CCL-186; for selectivity ratio: IC50 CCL186/IC50 MCF7 or IC50 CCL186/IC50 HCT116: normal vs cancer cell line
Procedure: as §1, §2, §3

[6] = system: HCT116 (human colon cancer cell line); test: Antiproliferative MTT assay, HCT116; assay type: cell-based; conditions: 72 h incubation, mean ± SD
Procedure: as §1, §2, §3
(§7) The compounds were initially screened at a fixed concentration of 10 μM on the human cancer cell lines HCT116 and MCF7 cells.

[7] = system: HepG2; test: cells; assay type: cell-based, human; conditions: for IC50 / viability at 10 µM: Homo sapiens; for IC50: HepG2, 72 h, read-out: IC50 HepG2; for viability at 10 µM: HepG2, 72 h, vs vehicle-treated controls, read-out: Percentage viability HepG2; for SR(HepG2/THLE2) safety ratio: percentage viability at 10 μM normalized with THLE2
Procedure: as §4, §5, §6
(§8) Cell viability was determined as described previous in Table 7. Percentage viability at 10 μM treatments was determined and safety ratios were calculated by normalizing survival in HCC cell lines to THLE2.

[8] = system: HuH7; test: cells; assay type: cell-based, human; conditions: for IC50 / viability at 10 µM: Homo sapiens; for IC50: Huh-7, 72 h, read-out: IC50 HuH7; for viability at 10 µM: Huh-7, 72 h, vs vehicle-treated controls, read-out: Percentage viability HuH7; for SR(HuH7/THLE2) safety ratio: percentage viability at 10 μM normalized with THLE2
Procedure: as §4, §5, §6, §8

[9] = system: MCF7 (human breast cancer cell line); test: Antiproliferative MTT assay, MCF7; assay type: cell-based; conditions: 72 h incubation, mean ± SD, n = 3, read-out: IC50 MCF-7
Procedure: as §1, §2, §3, §7

[10] = Homo sapiens, HCT-116, 72 h, n = 3

Compound | IC50 [1] | NQO1 induction ratio ([2]; 0.5 μM, read off from plot) | NQO1/CYP1A1 Quotient ([2]; both ratios at 0.5 μM) | CYP1A1 induction ratio ([3]; 0.5 μM) | IC50 [4] | IC50 [5] | IC50 ([6]; n = 3, read-out: IC50 HCT-116) | IC50 [7] | viability at 10 µM [7] | SR(HepG2/THLE2) safety ratio [7] | IC50 [8] | viability at 10 µM [8] | SR(HuH7/THLE2) safety ratio [8] | melting point | IC50 [9] | IC50 [6, 10] | NQO1 induction ratio ([2]; 0.05 μM, read off from plot) | NQO1/CYP1A1 Quotient ([2]; both ratios at 0.05 μM) | selectivity ratio: IC50 CCL186/IC50 MCF7 or IC50 CCL186/IC50 HCT116 [5] | other results
COc1cccc(/C=C2/C(=O)Nc3cc(OC)ccc32)c1 [Compound 42, (E)-6-Methoxy-3-(3-methoxybenzylidene)indolin-2-one] | 9.8 µM | 3.08 | 2.72 | 1.13 ± 0.01 | 1.2 µM | 1.8 ± 0.2 µM | 1.3 ± 0.4 µM | 2.2 µM | 20.7 ± 2% | 1.89 | 4 µM | 49.2 ± 4% | 0.79 | 161 to 163 °C | 1.2 ± 0.4 µM | – | – | – | – | –
COc1ccc2c(c1)NC(=O)/C2=C/c1ccc(OC)c(O)c1 [Compound 45, (E)-3-(3-Hydroxy-4-methoxybenzylidene)-6-methoxyindolin-2-one] | 9.8 µM | – | – | – | > 10 µM | 11.3 ± 0.4 µM | 7.8 ± 0.9 µM | 1.4 µM | 19.9 ± 1.4% | 3.61 | 8 µM | 46.6 ± 1.8% | 1.54 | 184 to 186 °C | 3.7 ± 0.3 µM | < 10 µM | – | – | – | NQO1 induction ratio ([2]; 1 μM, read off from plot of degree of induction versus concentration): 4.34; NQO1/CYP1A1 Quotient ([2]; both ratios at 1 μM): 4.13; CYP1A1 induction ratio ([3]; 1 μM): 1.05 ± 0.01
O=C1Nc2cc(F)ccc2/C1=C\c1cccc(C(F)(F)F)c1 [Compound 46, (E)-6-Fluoro-3-(3-(trifluoromethyl)benzylidene)indolin-2-one] | 2.2 µM | – | – | – | > 10 µM | 7.5 ± 0.7 µM | 8.9 ± 0.3 µM | 0.4 µM | 4.2 ± 0.3% | 17.19 | 1.1 µM | 11.3 ± 1% | 6.39 | 132 to 135 °C | 8.4 ± 0.3 µM | < 10 µM | 3.31 | 2.69 | ~1 | CYP1A1 induction ratio ([3]; 0.05 μM): 1.23 ± 0.08; IC50 ([9]; Homo sapiens, MCF7, 72 h): < 10 µM
O=C1Nc2cc(Cl)ccc2/C1=C\c1cccc(C(F)(F)F)c1 [Compound 47, (E)-6-Chloro-3-(3-(trifluoromethyl)benzylidene)indolin-2-one] | 1.1 µM | – | – | – | > 10 µM | 6.6 ± 0.5 µM | 7.5 ± 0.4 µM | 0.6 µM | 1.1 ± 0.09% | 65.27 | 0.5 µM | 3.3 ± 0.2% | 21.76 | 204 to 207 °C | 3.8 ± 0.3 µM | < 10 µM | 5.20 | 2.17 | ~1 | –
COc1ccc2c(c1)NC(=O)/C2=C/c1cccc(C(F)(F)F)c1 [Compound 48, (E)-6-Methoxy-3-(3-(trifluoromethyl)benzylidene)indolin-2-one] | 2.6 µM | 4.22 | 3.10 | 1.36 ± 0.07 | 3.6 µM | 5.4 ± 0.3 µM | 3.8 ± 0.6 µM | 0.4 µM | 14.5 ± 1.3% | 2.40 | 2.3 µM | 27.3 ± 0.5% | 1.27 | 157 to 160 °C | 1.9 ± 0.5 µM | – | – | – | – | –
